From US20080306275A1, “NOVEL HETEROARYL DERIVATIVE” (Danippon Sumitomo Pharma Co., Ltd., priority 2003, published 2008)
Structures can show the parent of a compound that is named as a salt.

Legend:
male db/db mice = assay: Hypoglycemic activity in db/db mice; format: in vivo; settings: 30 mg/kg orally once a day for 2 weeks, blood glucose level on the last day
Procedure: The test compounds as disclosed in Examples were dissolved or suspended in a 0.5% carbomethyl cellulose solution, and orally administered to male db/db mice (7 to 8 weeks old) at a final dose of 30 mg/kg once a day for 2 weeks. On the last day, the blood was taken at the tail vein, and immediately thereafter, perchloric acid was added for removing proteins, and the blood glucose level was measured by Glucose CII Test Wako (Wako Pure Industries, Ltd.).
In addition, the hypoglycemic activity was calculated by the following equation.

human PPARα = molecular target: T1, human PPARα (Homo sapiens, UniProt Q07869); assay: GAL4-PPARα luciferase reporter assay in COS-1 cells; format: cell-based; settings: relative luciferase activity, vehicle (DMSO) control regarded as 1, 24 hours
T1 construct: human PPARα (including amino acid residues 167-468); expressed in transfected cells; host or cells: COS-1
T1 sequence (Q07869 167-468): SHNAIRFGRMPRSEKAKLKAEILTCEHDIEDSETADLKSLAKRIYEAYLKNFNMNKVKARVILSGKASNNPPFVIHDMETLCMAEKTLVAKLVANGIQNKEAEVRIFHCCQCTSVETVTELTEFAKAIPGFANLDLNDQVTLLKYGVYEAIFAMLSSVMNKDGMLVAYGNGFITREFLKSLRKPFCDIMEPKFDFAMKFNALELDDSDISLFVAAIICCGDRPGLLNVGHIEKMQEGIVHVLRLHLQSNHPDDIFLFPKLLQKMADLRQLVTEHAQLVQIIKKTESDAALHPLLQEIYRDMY
From the text: (§1) By inserting a gene fragment encoding the ligand binding domain of human PPARα (including amino acid residues 167-468) or a gene fragment encoding the ligand binding domain of human PPARγ (including amino acids residue 204-505) into a multicloning site of expressing vector pM containing DNA binding domain of yeast GAL4 protein (Clonetech), a vector plasmid expressing a fused protein of GAL4 protein DNA binding domain and human PPARα or γ ligand binding domain.
(§2) As a reporter plasmid, pGL3-Basic Vector containing firefly luciferase gene (Promega Corporation) was used wherein Gal4-responsive sequence UAS and rabbit β-globin promoter were inserted.
(§3) For the modification of genetic transformation efficiency, a plasmid containing lacZ gene, pβgal control (Clonetech), was used.
(§4) COS-1 cells were cultured in the phenol red free Dulbecco's Modified Eagles Medium (DMEM) (Gibco) supplemented with 5% activated carbon/dextran stripped fetal bovine serum at 37° C. with 5% carbon dioxide. The COS-1 cells were plated at a concentration of 5×10^4 cells/well into a 24-well plate, and the plate was incubated overnight. The medium was replaced with a fresh medium supplemented without 5% activated carbon/dextran treated fetal bovine serum. Further, the cells were transfected using Lipofectamine plus reagent (Gibco) with plasmid GAL4-PPARα- or γ-expressing plasmid (5 ng), the reporter plasmid (50 ng), pβgal control (350 ng) per well. After incubation for 4 hours, the medium was changed with a fresh medium supplemented with 5% activated carbon/dextran treated fetal bovine serum. Then, the compound of the present invention was added thereto in such an amount that the final concentration thereof is 1 μM or 10 μM. After the cultivation for 24 hours, the cells were lysed with a solution for cell lysis accompanied to the Luciferase Assay System (Promega Corporation). The luciferase activity therein was measured by a luminometer using the reagent for measuring luciferase which was also accompanied to said System. The β-galactosidase activity was measured using a β-galactosidase enzyme assay system (Promega Corporation) to correct the generic transfection efficiency.
(§5) The PPARα- or γ-agonistic activity was expressed as a relative activity where the luciferase activity in the well to which the vehicle (DMSO) was added as control was regarded as 1.

human PPARγ = molecular target: T2, human PPARγ (Homo sapiens, UniProt P37231); assay: GAL4-PPARγ luciferase reporter assay in COS-1 cells; format: cell-based; settings: relative luciferase activity, vehicle (DMSO) control regarded as 1, 24 hours
T2 construct: human PPARγ (including amino acids residue 204-505); expressed in transfected cells; host or cells: COS-1
T2 sequence (P37231 204-505): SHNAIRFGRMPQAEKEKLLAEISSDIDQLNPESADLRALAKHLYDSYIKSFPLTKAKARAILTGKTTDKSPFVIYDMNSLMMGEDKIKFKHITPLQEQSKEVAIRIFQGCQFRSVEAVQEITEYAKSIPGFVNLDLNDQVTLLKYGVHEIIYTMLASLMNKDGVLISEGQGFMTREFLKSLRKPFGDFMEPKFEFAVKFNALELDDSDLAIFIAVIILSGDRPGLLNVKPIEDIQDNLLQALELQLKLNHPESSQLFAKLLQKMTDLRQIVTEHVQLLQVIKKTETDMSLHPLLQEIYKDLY
From the text: as §1, §2, §3, §4, §5

| SMILES | Hypoglycemic Activity (%) (male db/db mice) | PPARα-agonistic activity (10 μM) (human PPARα) | PPARγ-agonistic activity (10 μM) (human PPARγ) |
| --- | --- | --- | --- |
| Cc1ccc(C(=O)c2nccn2C/C=C/c2ccc(CO[C@H](C)C(=O)O)cc2)cc1 [Example 27] | 51.0 | – | – |
| Cc1ccc(C(=O)c2cccn2C/C=C/c2cccc(COC(C(=O)O)c3ccccc3)c2)cc1 (stereo not shown) [Example 2B, [(3-{(1E)-3-[2-(4-Methylbenzoyl)-1H-pyrrol-1-yl]prop-1-en-1-yl}benzyl)oxy]-(phenyl)acetic acid] | – | 7.8 | 5.6 |
| COc1ccc(C(=O)c2nccn2C/C=C/c2ccc(CO[C@H](C)C(=O)O)cc2)cc1 [Example 29] | 43.0 | – | – |
| Cc1ccc(C(=O)c2cccn2C/C=C/c2ccc(COCc3nnn[nH]3)cc2)cc1 [compound 51] | – | 17.7 | 8.9 |
| Cc1ccc(C(=O)c2cccn2C/C=C/c2ccc(CO[C@@H](C)C(=O)O)cc2)cc1 [Example 11, (2S)-2-[(4-{(1E)-3-[2-(4-Methylbenzoyl)-1H-pyrrol-1-yl]prop-1-en-1-yl}benzyl)-oxy]propionic acid 1,3-dihydroxy-2-(hydroxymethyl)propan-2-aminium salt] | 64.4 | – | – |
| Cc1ccc(C(=O)c2cccn2C/C=C/c2cccc(CO[C@H](C)C(=O)O)c2)cc1 [Example 5B, (2R)-2-[(3-{(1E)-3-[2-(4-Methylbenzoyl)-1H-pyrrol-1-yl]prop-1-en-1-yl}benzyl)-oxy]propionic acid] | – | 11.6 | 5.4 |
| Cc1ccc(C(=O)c2cccn2C/C=C/c2cccc(COC(C)(C)C(=O)O)c2)cc1 [Example 1B, 2-Methyl-2-[(3-{(1E)-3-[2-(4-methylbenzoyl)-1H-pyrrol-1-yl]prop-1-en-1-yl}-benzyl)oxy]propionic acid] | 21.2 | 8.0 | 4.7 |
| Cc1ccc(C(=O)c2cccn2C/C=C/c2cccc(CO[C@@H](C)C(=O)O)c2)cc1 [Example 7B, (2S)-2-[(3-{(1E)-3-[2-(4-Methylbenzoyl)-1H-pyrrol-1-yl]prop-1-en-1-yl}benzyl)-oxy]propionic acid] | – | 10.8 | 2.9 |
| Cc1ccc(C(=O)c2cccn2C/C=C/c2cccc(COCC(=O)O)c2)cc1 [Example 4, [(3-{(1E)-3-[2-(4-Methylbenzoyl)-1H-pyrrol-1-yl]prop-1-en-1-yl}benzyl)oxy]acetic acid] | – | 12.6 | 3.4 |
| Cc1ccc(C(=O)c2cccn2C/C=C/c2ccc(COC(C)(C)C(=O)O)cc2)cc1 [Example 3B, 2-Methyl-2-[(4-{(1E)-3-[2-(4-methylbenzoyl)-1H-pyrrol-1-yl]prop-1-en-1-yl}-benzyl)oxy]propionic acid] | 17.8 | 12.6 | 7.5 |
| CCC(OCc1cccc(/C=C/Cn2cccc2C(=O)c2ccc(C)cc2)c1)C(=O)O (stereo not shown) [Example 9B, 2-[(3-{(1E)-3-[2-(4-methylbenzoyl)-1H-pyrrol-1-yl]prop-1-en-1-yl}benzyl)oxy]-butyric acid] | – | 8.6 | 5.3 |
| Cc1ccc(C(=O)c2nc3ccccc3n2C/C=C/c2ccc(COC(C)(C)C(=O)O)cc2)cc1 [Example 38] | 18.2 | – | – |
| Cc1ccc(C(=O)c2cccn2C/C=C/c2ccc(CO[C@H](C)C(=O)O)cc2)cc1 [Example 6B, (2R)-2-[(4-{(1E)-3-[2-(4-Methylbenzoyl)-1H-pyrrol-1-yl]prop-1-ene-1-yl}benzyl)-oxy]propionic acid] | 63.3 | 10.1 | 5.5 |
